{
  "source": "patent US10485794B2",
  "about": "“Treatment method by combined use of MDM2 inhibitor and BTK inhibitor” (DAIICHI SANKYO COMPANY, LIMITED, priority 2015, dated 2019)",
  "key": {"[1]": {"test_system": "ABC-type DLBCL cell line TMD-8 cells", "test": "In vivo effect on subcutaneously transplanted TMD-8 tumor in mice (Test Example 1)", "parameters": "species or system NOD-SCID mouse", "conditions": "for TGI (%): 29 days after tumor inoculation", "description": "ABC-type DLBCL cell line TMD-8 cells were suspended to 1×10^8 cells/mL using phosphate-buffered saline. 0.1 mL of the prepared cell suspension was subcutaneously transplanted to each NOD-SCID mouse (female, 6 weeks old). […] The major axis (mm) and minor axis (mm) of tumor were measured over time using an electronic digital caliper. […] Also, the body weights were measured over time using an automatic balance for small animals, and body weight change % was calculated according to calculation formula (5) shown below to study the influence of drug administration on the body weights. In addition, the results of the last body weight measurement were used in dose calculation. […] A: Average tumor volume of the compound-administered group on the date of assessment (*) B: Average tumor volume of the untreated control group on the date of assessment (*) *: The tumor volume was calculated according to ½×[Major axis of tumor]×[Minor axis of tumor]×[Minor axis of tumor]."}, "[2]": {"test": "Body weight change of TMD-8 tumor-bearing mice (Test Example 1)", "type": "in vivo, NOD-SCID mouse", "description": "ABC-type DLBCL cell line TMD-8 cells were suspended to 1×10^8 cells/mL using phosphate-buffered saline. 0.1 mL of the prepared cell suspension was subcutaneously transplanted to each NOD-SCID mouse (female, 6 weeks old). […] For a combined use group, 25 mg/kg or 50 mg/kg Compound A and 100 mg/kg or 200 mg/kg ibrutinib were orally administered sequentially by forced administration. […] The major axis (mm) and minor axis (mm) of tumor were measured over time using an electronic digital caliper. […] Also, the body weights were measured over time using an automatic balance for small animals, and body weight change % was calculated according to calculation formula (5) shown below to study the influence of drug administration on the body weights. In addition, the results of the last body weight measurement were used in dose calculation. […] *: The tumor volume was calculated according to ½×[Major axis of tumor]×[Minor axis of tumor]×[Minor axis of tumor]. […] BWn: Body weight on day n BWs: Body weight on the start day of administration"}, "[3]": {"conditions": "Compound A 25 mg/kg oral, day 18 after tumor inoculation (first administration)"}, "[4]": {"conditions": "Compound A 25 mg/kg oral, day 20 after tumor inoculation"}, "[5]": {"conditions": "Compound A 25 mg/kg oral, day 22 after tumor inoculation"}, "[6]": {"conditions": "Compound A 25 mg/kg oral, day 25 after tumor inoculation"}, "[7]": {"conditions": "Compound A 25 mg/kg oral, day 27 after tumor inoculation"}, "[8]": {"conditions": "Compound A 25 mg/kg oral, day 29 after tumor inoculation"}, "[9]": {"conditions": "Compound A 50 mg/kg oral, day 18 after tumor inoculation (first administration)"}, "[10]": {"conditions": "Compound A 50 mg/kg oral, day 20 after tumor inoculation"}, "[11]": {"conditions": "Compound A 50 mg/kg oral, day 22 after tumor inoculation"}, "[12]": {"conditions": "Compound A 50 mg/kg oral, day 25 after tumor inoculation"}, "[13]": {"conditions": "Compound A 50 mg/kg oral, day 27 after tumor inoculation"}, "[14]": {"conditions": "Compound A 50 mg/kg oral, day 29 after tumor inoculation"}, "[15]": {"conditions": "Ibrutinib 100 mg/kg oral, day 18 after tumor inoculation (first administration)"}, "[16]": {"conditions": "Ibrutinib 100 mg/kg oral, day 20 after tumor inoculation"}, "[17]": {"conditions": "Ibrutinib 100 mg/kg oral, day 22 after tumor inoculation"}, "[18]": {"conditions": "Ibrutinib 100 mg/kg oral, day 25 after tumor inoculation"}, "[19]": {"conditions": "Ibrutinib 100 mg/kg oral, day 27 after tumor inoculation"}, "[20]": {"conditions": "Ibrutinib 100 mg/kg oral, day 29 after tumor inoculation"}, "[21]": {"conditions": "Ibrutinib 200 mg/kg oral, day 18 after tumor inoculation (first administration)"}, "[22]": {"conditions": "Ibrutinib 200 mg/kg oral, day 20 after tumor inoculation"}, "[23]": {"conditions": "Ibrutinib 200 mg/kg oral, day 22 after tumor inoculation"}, "[24]": {"conditions": "Ibrutinib 200 mg/kg oral, day 25 after tumor inoculation"}, "[25]": {"conditions": "Ibrutinib 200 mg/kg oral, day 27 after tumor inoculation"}, "[26]": {"conditions": "Ibrutinib 200 mg/kg oral, day 29 after tumor inoculation"}},
  "data": [
    {"smiles": "CC1(C)CCC2(CC1)N[C@@H](C(=O)N[C@@H]1CC[C@@H](C(N)=O)OC1)[C@H](c1ccnc(Cl)c1F)[C@]21C(=O)Nc2cc(Cl)ccc21.Cc1ccc(S(=O)(=O)O)cc1", "note": "[Compound A, (3′R,4′S,5′R)—N-[(3R,6S)-6-carbamoyltetrahydro-2H-pyran-3-yl]-6″-chloro-4′-(2-chloro-3-fluoropyridin-4-yl)-4,4-dimethyl-2″-oxo-1″,2″-dihydrodispiro[cyclohexane-1,2′-pyrrolidine-3′,3″-indole]-5′-carboxamide p-toluenesulfonate]", "values": [
      {"measurement": "TGI (%)", "setting": "[1]; Compound A 25 mg/kg oral", "value": 45, "unit": "%"},
      {"measurement": "Estimated tumor volume, average", "setting": "[1]; [3]", "value": 117, "unit": "mm^3"},
      {"measurement": "Estimated tumor volume, average", "setting": "[1]; [4]", "value": 135, "unit": "mm^3"},
      {"measurement": "Estimated tumor volume, average", "setting": "[1]; [5]", "value": 156, "unit": "mm^3"},
      {"measurement": "Estimated tumor volume, average", "setting": "[1]; [6]", "value": 201, "unit": "mm^3"},
      {"measurement": "Estimated tumor volume, average", "setting": "[1]; [7]", "value": 212, "unit": "mm^3"},
      {"measurement": "Estimated tumor volume, average", "setting": "[1]; [8]", "value": 282, "unit": "mm^3"},
      {"measurement": "TGI (%)", "setting": "[1]; Compound A 50 mg/kg oral", "value": 58, "unit": "%"},
      {"measurement": "Estimated tumor volume, average", "setting": "[1]; [9]", "value": 115, "unit": "mm^3"},
      {"measurement": "Estimated tumor volume, average", "setting": "[1]; [10]", "value": 118, "unit": "mm^3"},
      {"measurement": "Estimated tumor volume, average", "setting": "[1]; [11]", "value": 108, "unit": "mm^3"},
      {"measurement": "Estimated tumor volume, average", "setting": "[1]; [12]", "value": 143, "unit": "mm^3"},
      {"measurement": "Estimated tumor volume, average", "setting": "[1]; [13]", "value": 162, "unit": "mm^3"},
      {"measurement": "Estimated tumor volume, average", "setting": "[1]; [14]", "value": 216, "unit": "mm^3"},
      {"measurement": "Body weight change (%), average", "setting": "[2]; [3]", "value": 0.0, "unit": "%"},
      {"measurement": "Body weight change (%), average", "setting": "[2]; [4]", "value": 2.1, "unit": "%"},
      {"measurement": "Body weight change (%), average", "setting": "[2]; [5]", "value": 1.8, "unit": "%"},
      {"measurement": "Body weight change (%), average", "setting": "[2]; [6]", "value": 1.6, "unit": "%"},
      {"measurement": "Body weight change (%), average", "setting": "[2]; [7]", "value": 1.3, "unit": "%"},
      {"measurement": "Body weight change (%), average", "setting": "[2]; [8]", "value": 0.1, "unit": "%"},
      {"measurement": "Body weight change (%), average", "setting": "[2]; [9]", "value": 0.0, "unit": "%"},
      {"measurement": "Body weight change (%), average", "setting": "[2]; [10]", "value": "−0.8", "unit": "%"},
      {"measurement": "Body weight change (%), average", "setting": "[2]; [11]", "value": "−1.7", "unit": "%"},
      {"measurement": "Body weight change (%), average", "setting": "[2]; [12]", "value": "−2.7", "unit": "%"},
      {"measurement": "Body weight change (%), average", "setting": "[2]; [13]", "value": "−1.0", "unit": "%"},
      {"measurement": "Body weight change (%), average", "setting": "[2]; [14]", "value": "−1.7", "unit": "%"}
    ]},
    {"smiles": "C=CC(=O)N1CCC[C@@H](n2nc(-c3ccc(Oc4ccccc4)cc3)c3c(N)ncnc32)C1", "note": "[Ibrutinib, (R)-1-(3-(4-amino-3-(4-phenoxyphenyl)-1H-pyrazolo[3,4-d]pyrimidin-1-yl)piperidin-1-yl)prop-2-en-1-one]", "values": [
      {"measurement": "TGI (%)", "setting": "[1]; Ibrutinib 100 mg/kg oral", "value": 58, "unit": "%"},
      {"measurement": "Estimated tumor volume, average", "setting": "[1]; [15]", "value": 115, "unit": "mm^3"},
      {"measurement": "Estimated tumor volume, average", "setting": "[1]; [16]", "value": 112, "unit": "mm^3"},
      {"measurement": "Estimated tumor volume, average", "setting": "[1]; [17]", "value": 127, "unit": "mm^3"},
      {"measurement": "Estimated tumor volume, average", "setting": "[1]; [18]", "value": 157, "unit": "mm^3"},
      {"measurement": "Estimated tumor volume, average", "setting": "[1]; [19]", "value": 185, "unit": "mm^3"},
      {"measurement": "Estimated tumor volume, average", "setting": "[1]; [20]", "value": 213, "unit": "mm^3"},
      {"measurement": "TGI (%)", "setting": "[1]; Ibrutinib 200 mg/kg oral", "value": 67, "unit": "%"},
      {"measurement": "Estimated tumor volume, average", "setting": "[1]; [21]", "value": 119, "unit": "mm^3"},
      {"measurement": "Estimated tumor volume, average", "setting": "[1]; [22]", "value": 120, "unit": "mm^3"},
      {"measurement": "Estimated tumor volume, average", "setting": "[1]; [23]", "value": 115, "unit": "mm^3"},
      {"measurement": "Estimated tumor volume, average", "setting": "[1]; [24]", "value": 149, "unit": "mm^3"},
      {"measurement": "Estimated tumor volume, average", "setting": "[1]; [25]", "value": 153, "unit": "mm^3"},
      {"measurement": "Estimated tumor volume, average", "setting": "[1]; [26]", "value": 166, "unit": "mm^3"},
      {"measurement": "Body weight change (%), average", "setting": "[2]; [15]", "value": 0.0, "unit": "%"},
      {"measurement": "Body weight change (%), average", "setting": "[2]; [16]", "value": "−0.4", "unit": "%"},
      {"measurement": "Body weight change (%), average", "setting": "[2]; [17]", "value": "−1.1", "unit": "%"},
      {"measurement": "Body weight change (%), average", "setting": "[2]; [18]", "value": "−0.2", "unit": "%"},
      {"measurement": "Body weight change (%), average", "setting": "[2]; [19]", "value": 0.8, "unit": "%"},
      {"measurement": "Body weight change (%), average", "setting": "[2]; [20]", "value": "−0.1", "unit": "%"},
      {"measurement": "Body weight change (%), average", "setting": "[2]; [21]", "value": 0.0, "unit": "%"},
      {"measurement": "Body weight change (%), average", "setting": "[2]; [22]", "value": "−1.5", "unit": "%"},
      {"measurement": "Body weight change (%), average", "setting": "[2]; [23]", "value": "−1.2", "unit": "%"},
      {"measurement": "Body weight change (%), average", "setting": "[2]; [24]", "value": 0.2, "unit": "%"},
      {"measurement": "Body weight change (%), average", "setting": "[2]; [25]", "value": "−0.4", "unit": "%"},
      {"measurement": "Body weight change (%), average", "setting": "[2]; [26]", "value": "−1.6", "unit": "%"}
    ]}
  ]
}
